Patent US8765695B2, “Use of ginsenoside RG1, its metabolites ginsenoside RH1 and/or PPT” (priority 2007, dated 2014)
Marks after values point to notes of the source that are not given here.

Legend:
T, FSH and LH in serum = test: Hormones (T, FSH, LH) content in serum of mice, gossypol model, radioimmune assay; format: in vivo
Experimental: The test was conducted by radioimmune assay, with the use of a kit as purchased from China North Institute of Biological Technology.

NO in testis tissue = test: NO content in testis tissue of mice, gossypol model (NO kit); format: in vivo
Description: There was no difference between low-dose group and high-dose group. […] The values were expressed as mean value±SD. **P<0.01 vs. model group, n=10.

corpus cavernosum = test: NO release and cGMP content in corpus cavernosum of Newland white rabbit; format: in vivo
Experimental: 1.2.1 Influence of Ginsenoside Rg1 on No Release and cGMP Content in Corpus Cavernosum of Newland White Rabbit, as Shown in Table 4
Ginsenoside Rg1 (10 mg/kg) could markedly increase cGMP content in corpus cavernosum as compared with the control group. *P<0.05 vs the control group.

testosterone in serum = test: Content of testosterone in serum of male mice by radioimmune assay after 20 days of oral administration; format: in vivo
Experimental: After oral administration of ginsenoside Rg1 for 20 days, the content of testosterone in serum of male mice was tested by radioimmune assay.

[1] = test system: sperms in tail of epididymis; test: Gossypol aspermatogenesis model: quality of sperms from tail of epididymis by CASA; format: in vivo,  male mice; details: 14th day
[2] = test system: sperms of cold stress mice; test: Quality of sperms in mice in cold stress model by CASA; format: in vivo, Kunming mice; details: 14 days
Experimental: In the test, Kunming mice were used to establish a stress model. The mice were placed in an environment of 4° C. for 8 hours every day, each being kept in a single cage, with fasting and without water, for 14 days, to thereby establish a cold stress model. Ginsenoside Rg1 was administered at two different doses, i.e., 5 mg/kg and 10 mg/kg. Every day, the mice orally took the drug 1 hour before exposure in the cold environment.

sperms of senile mice = test: Quality of sperms in senile mice by CASA; format: in vivo, Kunming mice; details: senile mice aged 12 months, 5 mg/kg oral once every day, two weeks
Experimental: In the test, Kunming mice aged 12 months were used. Ginsenoside Rg1 was orally administered at a dose of 5 mg/kg, once every day, for two weeks.
However, the two groups had no difference in terms of the percentage of motility sperms and the percentage of A+B grade. […] The values were expressed as mean value±SD. **P<0.01 vs. the group of senile mice, n=4.

male mice = test: Test of sexual ethology: bestriding time and mating frequency of male mice with estral female mice; format: in vivo, Kunming mice
Experimental: Kunming male mice (age 10 weeks, weight body 32-36 g), Kunming female mice (age 10 weeks, weight body 30-34 g), as purchased from Laboratory Animal Center of Chinese Academy of Medical Sciences (with the number of certificate SCXK (Jing) 2005-0004), were placed in a clean grade animal house alternately in light and in darkness (12 h:12 h), while taking water and food freely. The test started after the mice had adapted to the environment in the animal house for 5 days. During the period of adapting to the environment, male mice and female mice were isolated from each other.
In order to correctly reflect the change of male mice in sexual function, we prepared estral female mice by ectomizing their ovaries and inducing them by application of external hormone. After anesthetized with chloral hydrate, female mice were subjected to the steps of ectomizing bilateral ovaries by dorsal approach, ligating uterine tube residue end, and suturing skin, followed by recuperating for one week. The induction by application of hormone was conducted by reference to the literature (Masayoshi Nomura, et al, Physiology & Behavior 91 (2007) 223-228), comprising the steps of subcutaneously injecting estradiol benzoate (30 μg per mouse, is) at 48 h prior to use, and subcutaneously injecting progesterone (500 μg per mouse, is) at 4 h prior to use, to thereby obtain estral female mice.
Estral female mice were put in a ratio of 2:1 to male mice inside a mating box in which male mice were placed. They were trained for consecutive 5 days, 12 min each day. When the mating reaction of male mice became stable, the mice were grouped with the consideration that the bestriding time in each group of mice was substantially the same, while discarding the mice that had relatively weak reaction and no reaction.
In darkness, ethological test was carried out in the rearing cage of male mice. Estral female mice and male mice were kept in a ratio of 2:1 inside the same box for 12 min, during which period the bestriding time and mating frequency of the male mice were observed.
All of the values were expressed by using mean value and standard error (M±SEM), the analytic method used was one-way analysis of variance (ANOVA), and the statistic results were expressed by double star method, i.e., *<0.05, **<0.01.

PDE5 = PDE5 (Homo sapiens, UniProt O76074); test: Inhibition effect on PDE5 (cGMP degradation, radioimmune autograph technique); format: biochemical
healthy men aged 30-50 = test: Improving sexual function of men, study in volunteers; format: in vivo, human; details: 100-200 mg/d
Description: The effect of ginsenoside Rg1 on improving sexual function of men had been studied in a few of volunteers (healthy men aged 30-50).

CC(C)=CCC[C@](C)(O[C@@H]1O[C@H](CO)[C@@H](O)[C@H](O)[C@H]1O)[C@H]1CC[C@]2(C)[C@@H]1[C@H](O)C[C@@H]1[C@@]3(C)CC[C@H](O)C(C)(C)[C@@H]3[C@@H](O[C@@H]3O[C@H](CO)[C@@H](O)[C@H](O)[C@H]3O)C[C@]12C [Rg1, ginsenoside Rg1]
FSH in serum (T, FSH and LH in serum; 5 mg/kg): 5.7 ± 2.0 ng/mL
LH in serum (T, FSH and LH in serum; 5 mg/kg): 2.9 ± 1.2 ng/mL
T in serum (T, FSH and LH in serum; 5 mg/kg): 0.8 ± 0.3 ng/mL
FSH in serum (T, FSH and LH in serum; 10 mg/kg): 4.3 ± 1.9 ng/mL
LH in serum (T, FSH and LH in serum; 10 mg/kg): 2.1 ± 0.8 ng/mL
T in serum (T, FSH and LH in serum; 10 mg/kg): 1.0 ± 0.5 ng/mL
NO concentration in testis tissue (NO in testis tissue; 5 mg/kg): 16 ± 9 μmol/g protein
NO concentration in testis tissue (NO in testis tissue; 10 mg/kg): 10 ± 7** μmol/g protein
NO release in corpus cavernosum (corpus cavernosum; 2.5 mg/kg): 27.97 ± 6.90 μmol/g protein
cGMP content in corpus cavernosum (corpus cavernosum; 2.5 mg/kg): 87.40 ± 42.86 pmol/g
NO release in corpus cavernosum (corpus cavernosum; 5.0 mg/kg): 28.43 ± 6.04* μmol/g protein
cGMP content in corpus cavernosum (corpus cavernosum; 5.0 mg/kg): 98.10 ± 48.40 pmol/g
NO release in corpus cavernosum (corpus cavernosum; 10.0 mg/kg): 30.35 ± 6.70* μmol/g protein
cGMP content in corpus cavernosum (corpus cavernosum; 10.0 mg/kg): 102.73 ± 50.80* pmol/g
content of testosterone in serum of mice (testosterone in serum; 2.5 mg/kg oral): 5.11 pmol/mL
content of testosterone in serum of mice (testosterone in serum; 5.0 mg/kg oral): 5.18 pmol/mL
content of testosterone in serum of mice (testosterone in serum; 10.0 mg/kg oral): 7.90* pmol · ml^−1
Number of sperms ([1]; 5 mg/kg every day + gossypol 50 mg/kg every other day): 170 ± 36**^# 10^6 · ml−1
Motility of sperms (A + B) ([1]; 5 mg/kg every day + gossypol): 28 ± 6%
Viability rate of sperms ([1]; 5 mg/kg every day + gossypol): 50 ± 10 %
Number of sperms ([1]; 10 mg/kg every day + gossypol 50 mg/kg every other day): 225 ± 36**^## 10^6 · ml−1
Motility of sperms (A + B) ([1]; 10 mg/kg every day + gossypol): 45 ± 8 %
Viability rate of sperms ([1]; 10 mg/kg every day + gossypol): 61 ± 9 %
A + B grade ([2]; 5 mg/kg oral): 39.26 ± 8.96 %
Motility sperm ([2]; 5 mg/kg oral): 54.47 ± 8.14 %
Sperm count ([2]; 5 mg/kg oral): 438.70 ± 94.19 ×10^6
A + B grade ([2]; 10 mg/kg oral): 32.89 ± 13.42%
Motility sperm ([2]; 10 mg/kg oral): 44.97 ± 12.07%
Sperm count ([2]; 10 mg/kg oral): 377.17 ± 42.93 ×10^6
A + B grade (sperms of senile mice): 18.27 ± 8.37%
Motility sperms (sperms of senile mice): 40 ± 6.56%
Sperm count (sperms of senile mice): 133.23 ± 15.99** ×10^6
bestriding time of mice (male mice; 5 mg/kg, 1st day): 3.1 ± 4.3 min
mating frequency of mice (male mice; 5 mg/kg, 1st day, 12 min observation): 15.4 ± 6.4
bestriding time of mice (male mice; 5 mg/kg, 4th day): 2.9 ± 3.4 min
mating frequency of mice (male mice; 5 mg/kg, 4th day): 18.7 ± 4.2
bestriding time of mice (male mice; 5 mg/kg, 8th day): 3.9 ± 3.1 min
mating frequency of mice (male mice; 5 mg/kg, 8th day): 25.6 ± 5.2
bestriding time of mice (male mice; 5 mg/kg, 12th day): 7.6 ± 4.1 min
mating frequency of mice (male mice; 5 mg/kg, 12th day): 32.8 ± 6.6
bestriding time of mice (male mice; 5 mg/kg, 14th day): 6.9 ± 3.5 min
mating frequency of mice (male mice; 5 mg/kg, 14th day): 29.3 ± 7.0
bestriding time of mice (male mice; 5 mg/kg, 16th day): 8.6 ± 2.8 min
mating frequency of mice (male mice; 5 mg/kg, 16th day): 42.1 ± 10.1
bestriding time of mice (male mice; 5 mg/kg, 18th day): 9.4 ± 3.7* min
mating frequency of mice (male mice; 5 mg/kg, 18th day): 43.7 ± 8.7*
bestriding time of mice (male mice; 5 mg/kg, 20th day): 9.5 ± 3.4* min
mating frequency of mice (male mice; 5 mg/kg, 20th day): 43.3 ± 7.8*
bestriding time of mice (male mice; 10 mg/kg, 1st day): 3.3 ± 2.3 min
mating frequency of mice (male mice; 10 mg/kg, 1st day, 12 min observation): 13.8 ± 3.4
bestriding time of mice (male mice; 10 mg/kg, 4th day): 3.5 ± 3.1 min
mating frequency of mice (male mice; 10 mg/kg, 4th day): 20.1 ± 4.8
bestriding time of mice (male mice; 10 mg/kg, 8th day): 4.2 ± 3.6 min
mating frequency of mice (male mice; 10 mg/kg, 8th day): 28.3 ± 5.6
bestriding time of mice (male mice; 10 mg/kg, 12th day): 8.6 ± 4.3 min
mating frequency of mice (male mice; 10 mg/kg, 12th day): 25.3 ± 7.1
bestriding time of mice (male mice; 10 mg/kg, 14th day): 7.9 ± 3.7 min
mating frequency of mice (male mice; 10 mg/kg, 14th day): 33.3 ± 6.6
bestriding time of mice (male mice; 10 mg/kg, 16th day): 9.2 ± 3.6 min
mating frequency of mice (male mice; 10 mg/kg, 16th day): 37.9 ± 12.7
bestriding time of mice (male mice; 10 mg/kg, 18th day): 9.3 ± 3.6* min
mating frequency of mice (male mice; 10 mg/kg, 18th day): 45.1 ± 10.8*
bestriding time of mice (male mice; 10 mg/kg, 20th day): 9.8 ± 3.8* min
mating frequency of mice (male mice; 10 mg/kg, 20th day): 44.2 ± 9.4*
IC50 (PDE5): 4.34 nM
inhibition at 0.0025 µM (PDE5; inhibitor 2.5 nmol/l, read-out: Inhibition rate on PDE5): 46.7%
inhibition at 0.005 µM (PDE5; inhibitor 5.0 nmol/l, read-out: Inhibition rate on PDE5): 40%
inhibition at 0.01 µM (PDE5; inhibitor 10.0 nmol/l, read-out: Inhibition rate on PDE5): 63.4%
inhibition at 0.04 µM (PDE5; inhibitor 40.0 nmol/l, read-out: Inhibition rate on PDE5): 100%
inhibition at 0.08 µM (PDE5; inhibitor 80.0 nmol/l, read-out: Inhibition rate on PDE5): 100%
side effects in volunteers (healthy men aged 30-50): except for dry mouth, no significant side effects occurred
